# Test results taken from publication PMC8213385, “Development of a Fluorescent Assay to Search New Drugs Using Stable tdTomato-Leishmania, and the Selection of Galangin as a Candidate With Anti-Leishmanial Activity” (Frontiers in Cellular and Infection Microbiology, 2021).
# Experiments:
# [1] = tested on: promastigotes of L. amaz/tc3; assay: Transmission electron microscopy of treated promastigotes; format: cell-based, Leishmania (Leishmania) amazonensis; conditions: exposed to the IC50, 48 h
# Description: Ultrastructural alterations in Leishmania induced by flavonoids with anti-leishmanial activity were analyzed by transmission electron microscopy (TEM). […] The control was a culture of L. amaz/tc3 incubated in complete RPMI-1640 medium. After 48 h of incubation, samples of L. amaz/tc3 promastigotes from each culture were fixed in modified Karnovsky’s solution (formaldehyde [2.66%], glutaraldehyde [1.66%]) and PBS 0.1M (pH 7,4), and incubated overnight at 4°C. The fixed samples were post-fixed with a 1/1 solution of PBS/2% osmium tetroxide (OsO4), overnight. Then the material was dehydrated and included in Spurr (Pelco, USA). Ultrathin sections were cut with an ultramicrotome (MT1, Sorvall, USA), mounted on copper grids, and contrasted with uranyl acetate (PELCO, USA) and lead citrate.
# [2] = tested on: promastigotes of L. amaz/tc3; assay: Fluorescence assay against promastigotes of L. amaz/tc3 (tdTomato); format: cell-based, Leishmania (Leishmania) amazonensis; conditions: Leishmania, 48 h, read-out: IC50 against promastigotes of L. amaz/tc3
# Description: Then, we evaluated the efficacy of MI, a reference drug for leishmaniasis by the fluorescence method (L. amaz/tc3) and by the conventional method based in counting the parasite at the optic microscope (L. amaz/wt). Mid-log promastigotes of L. amaz/tc3 and L. amaz/wt were harvest and seeded (1 x 10^6/0.1 ml) with different concentrations of MI (40 to 0.6 µg/ml) in a 96-well plate at 23°C. Promastigotes cultured only in medium were the controls. Parasite viability was determined by measuring the fluorescence of L. amaz/tc3 in a plate reader (Tecan, Männedorf, Switzerland) and by counting the mobile promastigotes in a Neubauer chamber at the optic microscope (40x) (Leitz Wetzlar, Germany) at 48 h of incubation with MI. Viability was calculated with the formula: ViabilityL.amaz/tc3 =FLt/FLc×100 where, FLt is the fluorescence of treated culture, and FLc is the fluorescence of control; ViabilityL.amaz/wt=NPt/NPc×100 where, NPt is the number of promastigotes in the treated culture, and NPc is the number of promastigotes in control culture. Then, the 50% inhibitory concentration (IC50) of MI was estimated.
# After fluorescence assay validation as it is described above, the method was used to evaluate in vitro the flavonoids anti-leishmanial activity. Mid-log promastigotes of L. amaz/tc3 were harvest and seeded with different concentrations of GAL (1,200 to 18.75 µM), MO, FI and RU (40 to 1.25 µM), and EGCG (300 to 18.75 µM). Positive control were promastigotes treated with PE (4 to 0.25 µM), the negative control were promastigotes cultured with medium only, and the blank was the culture medium. The parasites were incubated at 23°C for 48 h. The anti-leishmanial activity was determined by measuring the parasite fluorescence in a plate reader (Tecan, Männedorf, Switzerland). The viability was estimated as was described above for MI (fluorescent assay). The IC50 was calculated for each compound.
structure (smiles),measurement,setting,value
"O=c1c(O)c(-c2ccccc2)oc2cc(O)cc(O)c12 [GAL, Galangin]",Ultrastructural alterations in promastigotes (TEM),[1],dramatic changes in the mitochondrial structure
same,IC50,[2],53.1 µM
